According to patent US11234960B2, “Compositions and methods for improving mitochondrial function and treating neurodegenerative diseases and cognitive disorders” (Amazentis SA, priority 2010, dated 2022):

How the values were obtained:
Format in all cases: in vivo
C. elegans strain SJ4103 = experiment: Mitochondrial GFP reporter in muscle of C. elegans strain SJ4103; settings: 50 μM from eggs, GFP monitored after one day of adulthood (FIG. 26)
Experimental: C. elegans strains were cultured at 20° C. on nematode growth media agar plates seeded with HT115 bacteria and containing 50 μM urolithin A or a corresponding concentration of DMSO as a control. […]. The strains used were the SJ4103 (zcIs14[myo-3::GFP(mit)]), which is a stable transgenic line expressing a mitochondrially localized green fluorescent protein (GFP) with a cleavable mitochondrial import signal peptide under the control of the specific body wall muscle promoter myo-3. GFP expression and quantification was carried out according to the protocol previously described (Durieux et al., 2011). Worms were treated with 50 μM urolithin A from eggs, and GFP was monitored after one day of adulthood. Fluorimetric assays were performed using a Victor X4 multilabel plate reader (Perkin-Elmer Life Science). Eighty worms were picked at random (20 worms per well of a black-walled 96-well plate) and each well was read four times and averaged.

[1] = tested on: maternally separated mice; experiment: Rotarod motor learning in early-life stress mice; settings: early-life stressed mice, 90 mg/kg/day (FIG. 44)
Experimental: (§1) At postnatal day 1, pups were culled to have 6 pups per mother. From postnatal day 1 to 14, unpredictable maternal separation (MS) of a period of 3 hours daily was carried out. Maternal separation was performed at random times (from 8 am to 2 pm) to avoid the habituation of the mother to the procedure. The protocol consisted of removing pups from their mother to another cage at room temperature for a 3 hour period, after which the pups were returned to their original nest. These groups are denoted as early-life stress in the figures. A control group of dam/pups was left undisturbed and is denoted in the figures as normal.
(§2) One week after maternal separation mice were separated into two groups. One control group received the standard mouse chow diet (Untreated), while the other group received the ellagitannin punicalagin admixed into the food and designed to deliver a dose of 90 mg/kg/day to the mice. Treatment with the diet began 1 week after the termination of the maternal separation treatment. […]
To measure the effects of pomegranate-derived compounds on the negative cognitive impacts of maternal separation, effects on motor learning were assayed using the rotarod behavioral assay. […] The latency to fall was measured with a cutoff time of 300 sec. […]

[2] = tested on: maternally separated mice; experiment: Morris water maze in early-life stress mice; settings: early-life stressed mice, 90 mg/kg/day (FIG. 45)
Experimental: as §1, §2
The Morris water maze behavioral assay was employed to assess the cognitive impact of maternal separation. In this assay, cognitive learning is measured by the ability of a mouse to locate a hidden platform in a pool of opaque water. […] Escape latency to reach the platform was measured by a video tracking system.

[3] = tested on: maternally separated mice; experiment: Forced swim test in early-life stress mice; settings: early-life stressed mice, 90 mg/kg/day in food (FIG. 41)
Experimental: as §1, §2
Animals were considered to be engaged in swimming and mobile if there was a clear displacement of the body. […] Animal behavior was recorded over a 6-minute test period using a camera and a mirror behind the cylinder. The first 2 minutes and the last 4 minutes of the swimming were analyzed separately for mouse swimming activity. […]

SMILES	expression of mitochondrial GFP-reporter driven by myo-3 promoter (fluorescence) (C. elegans strain SJ4103)	motor learning, latency to fall from rotarod [1]	escape latency in Morris water maze (cognitive learning) [2]	immobility / swimming activity in forced swim test [3]
O=c1oc2cc(O)ccc2c2ccc(O)cc12 [urolithin A, 3,8-Dihydroxydibenzo-α-pyrone]	induced the expression of the mitochondrial GFP-reporter	–	–	–
O=C1O[C@H]2[C@@H]3OC(=O)c4cc(O)c(O)c(O)c4-c4c(O)c(O)c5oc(=O)c6c(c(O)c(O)c7oc(=O)c4c5c76)-c4c(cc(O)c(O)c4O)C(=O)OC[C@H]3OC(O)[C@@H]2OC(=O)c2cc(O)c(O)c(O)c2-c2c1cc(O)c(O)c2O (mixture of isomers) [punicalagin, 2,3 hexahydroxydiphenoyl-4,6-gallagylglucose]	–	restored motor learning skills	reducing the time to learn the location of the hidden platform to levels observed in normal non-stressed mice	increased swimming activity to levels seen in non-stressed mice
